In patent US8349805B2, “Use of Gonadorelin as a therapeutic agent” (priority 2007, dated 2013):
Ends that are not written are not given here.

Tested on: drug-resistant Mycobacterium tuberculosis
Conditions: 10 micrograms per ml; seven days at 37° C.; strain resistant to PAS, streptomycin and isoniazid

Row | Compound | inhibition of the growth of Mycobacterium tuberculosis
1 | CC(C)C[C@H](NC(=O)CNC(=O)[C@H](Cc1ccc(O)cc1)NC(=O)[C@H](CO)NC(=O)[C@H](Cc1c[nH]c2ccccc12)NC(=O)[C@H](Cc1cnc[nH]1)NC(=O)[C@@H]1CCC(=O)N1)C(=O)N[C@@H](CCCNC(=N)N)C(=O)N1CCC[C@H]1C(=O)NCC(N)=O [Peptide 1] | 100%
2 | Met-Gln-Met-Lys-Lys-Val-Leu-Asp-Ser-OH (MQMKKVLDS-OH) [Peptide 2] | 100%
